Data published in PubChem BioAssay (NCI).
Several values for one entry are separate records, joined by “and”; a condition that tells them apart may be missing. Equal entries are not always repeated.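 Briefly, cells in 96-well plates were exposed to five compound concentrations for 48 h, and endpoints were estimated by linear interpolation. GI50 = concentration required for 50% inhibition of growth. TGI: total growth inhibition.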

How the values were obtained:
Assay in all cases: growth of human tumour cells (NCI), 48 h
ACHN renal = test system: ACHN renal
HOP-92 NSCLC = test system: HOP-92 NSCLC
HT29 colon = test system: HT29 colon
KM12 colon = test system: KM12 colon
MDA-MB-231 breast = test system: MDA-MB-231 breast
NCI-H23 lung = test system: NCI-H23 lung
OVCAR-5 ovarian = test system: OVCAR-5 ovarian
RPMI-8226 leukemia = test system: RPMI-8226 leukemia
SK-MEL-2 melanoma = test system: SK-MEL-2 melanoma
SR leukemia = test system: SR leukemia

SMILES | TGI (ACHN renal) [µM] | TGI (HOP-92 NSCLC) | TGI (HT29 colon) [µM] | TGI (KM12 colon) [µM] | TGI (MDA-MB-231 breast) | TGI (NCI-H23 lung) [µM] | TGI (OVCAR-5 ovarian) [µM] | TGI (RPMI-8226 leukemia) [µM] | TGI (SK-MEL-2 melanoma) [µM] | TGI (SR leukemia) [µM] | GI50 (ACHN renal) [µM] | GI50 (HOP-92 NSCLC) | GI50 (HT29 colon) [µM] | GI50 (KM12 colon) | GI50 (MDA-MB-231 breast) | GI50 (NCI-H23 lung) [µM] | GI50 (OVCAR-5 ovarian) [µM] | GI50 (RPMI-8226 leukemia) [µM] | GI50 (SK-MEL-2 melanoma) [µM] | GI50 (SR leukemia) [µM]
CNC1C(OC2C(OC3C(O)C(O)C(O)C(O)C3O)OC(C)C2(O)CO)OC(CO)C(O)C1O (centres undefined) (tested in a mixture with another compound) | > 100 | > 100 µM | > 100 | > 100 | > 100 µM | > 100 | > 100 | > 100 | > 100 | > 100 |  |  |  |  |  |  |  |  |  | 
O=C(CN1CCN(c2ccc(Cl)cc2)CC1)N1CCN(c2nnc(-c3ccccc3)c(-c3ccccc3)n2)CC1 | > 100 | > 100 µM | 19.5 | > 100 | > 100 µM | > 100 | > 100 | > 100 | > 100 | 15.7 | 5.07 | 6.68 µM | 2.43 | 4.04 µM | > 100 µM | 4 | > 100 | 2.77 | > 100 | 2.73
CC(C)[C@@H]1CC[C@@H]2[C@@H]1[C@H](OC(=O)/C=C/c1ccccc1)[C@]1(C(C)C)C[C@@H](OC(=O)CO)[C@@]2(C)O1 | 4.25 | 8.88 µM | 14.4 | 14.6 | 10.4 µM | 14.1 | 10.2 | 16.5 | 17.6 | 18.7 | 0.00824 | 4.34 µM | 6.92 | 7.07 µM | 5.38 µM | 6.88 | 5.15 | 7.44 | 7.71 | 7.91
Oc1cc2ccccc2cc1-c1n[nH]c(=S)n1-c1ccc(Cl)cc1 | > 100 | > 100 µM | 76.3 | > 100 | 38.3 µM | 60.3 | 95.6 | 43.5 | 39.3 | > 100 | 25.8 | 46 µM | 24.6 | 9.14 µM | 8.88 µM | 20 | 27.6 | 12.1 | 12.5 | 3.08
NC[C@@](O)(c1ccc(Cl)cc1)c1ccc(-c2cn[nH]c2)cc1 | 4.93 | 1.85 µM and 1.45 µM | 7.26 | > 100 | 52.3 µM and > 10 µM | > 100 | > 10 | 4.95 | 4.5 | 4.64 | 1.64 | 0.0445 µM and 0.0376 µM | 1.98 | 3.44 µM and 3.48 µM | 3.24 µM and 2.76 µM |  | 8.67 | 2.23 | 1.89 | 1.16
O=C(Nc1ccc(Br)cc1F)c1cc(Br)ccc1O | 9.18 | 0.651 µM | 9.71 | 5.66 | 4.9 µM | 3.62 | 33.3 | 2.02 | 2.42 | 11.8 | 0.848 | 0.177 µM | 3.08 | 1.93 µM | 1.09 µM | 0.396 | 2.97 | 0.322 | 0.387 | 2.07
CN1CCCCC1CCN1c2ccccc2Sc2ccc(S(C)=O)cc21 (centres undefined) | > 100 | > 100 µM | > 100 | > 100 | > 100 µM | > 100 | > 100 | > 100 | > 100 | > 100 |  |  |  |  |  |  |  |  |  | 
CCN1CCN(C(=O)[C@]23CCC(C)(C)C[C@@H]2C2=CC[C@@H]4[C@@]5(C)C/C(=C/c6cccnc6)C(=O)C(C)(C)[C@@H]5CC[C@@]4(C)[C@]2(C)CC3)CC1 | 10.5 | 3.26 µM | 4.67 | 3.26 | 2.84 µM | 5.85 | 3.35 | 5.13 | 3.96 | 5.1 | 2.6 | 1.06 µM | 1.71 | 1.58 µM | 1.4 µM | 2.1 | 1.56 | 0.959 | 1.93 | 0.706
O=C1C(Cl)=C(Nc2cccc(O)c2)C(=O)N1c1cccc(Cl)c1Cl | > 100 | 5.91 µM | 58.3 | 86.8 | 34.2 µM | 34.6 | 57.7 | 16.2 | 35.9 | 10.3 | 19.1 | 0.262 µM | 18.5 | 24.6 µM | 12.3 µM | 14.4 | 22.4 | 1.56 | 15.2 | 0.57
CCCN1CCN(c2ccc3nc(-c4ccc5nc(-c6ccc(OCC)c(OCC)c6)[nH]c5c4)[nH]c3c2)CC1 | 2.6 | 5.5 µM | 1.66 | 2.08 | 2.81 µM | 0.765 | 4.32 | 1.89 | 2.01 | 0.896 | 1 | 1 µM | 0.294 | 0.684 µM | 1.21 µM | 0.251 | 1.67 | 0.387 | 0.508 | 0.263
C/C(=N\NC(=O)c1ccncc1)c1ccc(O)cc1O | > 100 | > 100 µM | > 100 | > 100 | > 100 µM | > 100 | > 100 | > 100 | > 100 | > 100 | 4.48 | 17.1 µM | 8.09 | 8.59 µM | 3.88 µM | 11.4 | 27 | 31.5 | > 100 | 4.16
O=C(/C=C/c1cccnc1)c1ccccc1O | 37.6 | 32.5 µM | 58.7 | > 100 | 46.7 µM | 36 | 46.7 | 39 | 62.2 | 64.6 | 16.7 | 10.4 µM | 21.4 | 32.2 µM | 17.7 µM | 16.9 | 19 | 12.9 | 22.8 | 12.3
